Several values for one entry are separate records, joined by “and”; a condition that tells them apart may be missing. Equal values may be shown once. Inconclusive results and toxic doses are left out.
Tested on: BDF1 mice, P388 leukemia ip, median survival T/C
Test: NCI In Vivo Anticancer Drug Screen. Data for tumor model P388 Leukemia (intraperitoneal) in B6D2F1 (BDF1) mice
Conditions: endpoint: median survival time, higher = longer survival
Method in brief: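 Each value expresses how treatment altered survival: treated-mouse outcome over vehicle-mouse outcome, both groups bearing the transplanted tumour.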

[1] = dose: 25.0 mg/kg/injection, schedule: Q04DX003 (ip), vehicle: saline
[2] = dose: 12.5 mg/kg/injection, schedule: Q01DX009 (ip), vehicle: saline with Tween-80
[3] = dose: 25.0 mg/kg/injection, schedule: Q01DX009 (ip), vehicle: saline with Tween-80
[4] = dose: 50.0 mg/kg/injection, schedule: Q01DX009 (ip), vehicle: saline with Tween-80
[5] = dose: 100.0 mg/kg/injection, schedule: Q04DX003 (ip), vehicle: saline
[6] = dose: 100.0 mg/kg/injection, schedule: Q04DX003 (ip), vehicle: Klucel (hydroxypropylcellulose) (HPC)
[7] = dose: 200.0 mg/kg/injection, schedule: Q04DX003 (ip), vehicle: Klucel (hydroxypropylcellulose) (HPC)
[8] = dose: 400.0 mg/kg/injection, schedule: Q04DX003 (ip), vehicle: Klucel (hydroxypropylcellulose) (HPC)
[9] = dose: 100.0 mg/kg/injection, schedule: Q01DX001 (ip), vehicle: Klucel (hydroxypropylcellulose) (HPC)
[10] = dose: 200.0 mg/kg/injection, schedule: Q01DX001 (ip), vehicle: Klucel (hydroxypropylcellulose) (HPC)
[11] = dose: 400.0 mg/kg/injection, schedule: Q01DX001 (ip), vehicle: Klucel (hydroxypropylcellulose) (HPC)
[12] = dose: 100.0 mg/kg/injection, schedule: Q01DX009 (ip), vehicle: saline
[13] = dose: 200.0 mg/kg/injection, schedule: Q01DX009 (ip), vehicle: saline
[14] = dose: 200.0 mg/kg/injection, schedule: Q04DX003 (ip), vehicle: saline
[15] = dose: 400.0 mg/kg/injection, schedule: Q01DX009 (ip), vehicle: saline
[16] = dose: 400.0 mg/kg/injection, schedule: Q04DX003 (ip), vehicle: saline
[17] = dose: 37.5 mg/kg/injection, schedule: Q01DX009 (ip), vehicle: saline with Tween-80
[18] = dose: 100.0 mg/kg/injection, schedule: Q04DX003 (ip), vehicle: saline with Tween-80
[19] = dose: 200.0 mg/kg/injection, schedule: Q04DX003 (ip), vehicle: saline with Tween-80
[20] = dose: 400.0 mg/kg/injection, schedule: Q04DX003 (ip), vehicle: saline with Tween-80

CN(C)CCCN1c2ccccc2Sc2ccc(C(F)(F)F)cc21
T/C (dose: 6.25 mg/kg/injection, schedule: Q01DX009 (ip), vehicle: saline): 100 % of control | T/C (dose: 6.25 mg/kg/injection, schedule: Q04DX003 (ip), vehicle: saline with Tween-80): 108 % of control | T/C (dose: 8.9 mg/kg/injection, schedule: Q01DX009 (ip), vehicle: saline): 118 % of control | T/C (dose: 9.37 mg/kg/injection, schedule: Q01DX009 (ip), vehicle: saline): 110 % of control | T/C (dose: 12.5 mg/kg/injection, schedule: Q04DX003 (ip), vehicle: saline with Tween-80): 113 % of control | T/C (dose: 12.5 mg/kg/injection, schedule: Q04DX003 (ip), vehicle: saline): 108 % of control | T/C (dose: 13.4 mg/kg/injection, schedule: Q01DX009 (ip), vehicle: saline): 109 % of control | T/C (dose: 16.5 mg/kg/injection, schedule: Q01DX009 (ip), vehicle: saline): 122 % of control | T/C (dose: 20.0 mg/kg/injection, schedule: Q01DX009 (ip), vehicle: saline): 118 % of control | T/C (dose: 25.0 mg/kg/injection, schedule: Q01DX009 (ip), vehicle: saline): 100 % of control | T/C (dose: 25.0 mg/kg/injection, schedule: Q04DX003 (ip), vehicle: saline with Tween-80): 113 % of control | T/C [1]: 109 % of control | T/C (dose: 37.5 mg/kg/injection, schedule: Q01DX009 (ip), vehicle: saline): 100 % of control | T/C (dose: 37.5 mg/kg/injection, schedule: Q04DX003 (ip), vehicle: saline): 161 % of control | T/C (dose: 50.0 mg/kg/injection, schedule: Q01DX009 (ip), vehicle: saline): 95 % of control

CC(C)CC(B1OCCO1)(C1CCCCC1)C1CCCCC1
T/C [2]: 100 % of control | T/C [3]: 100 % of control | T/C [4]: 90 % of control | T/C (dose: 100.0 mg/kg/injection, schedule: Q04DX003 (ip), vehicle: other): 109 % of control | T/C (dose: 200.0 mg/kg/injection, schedule: Q04DX003 (ip), vehicle: other): 122 % of control | T/C (dose: 400.0 mg/kg/injection, schedule: Q04DX003 (ip), vehicle: other): 122 % of control

O=c1[nH]c2cc(Cl)ccc2c(CCl)c1Cl
T/C [1]: 109 % of control | T/C (dose: 50.0 mg/kg/injection, schedule: Q04DX003 (ip), vehicle: saline): 104 % of control | T/C (dose: 56.25 mg/kg/injection, schedule: Q01DX001 (ip), vehicle: saline with Tween-80): 109 % of control | T/C [5]: 100 % of control | T/C (dose: 112.5 mg/kg/injection, schedule: Q01DX001 (ip), vehicle: saline with Tween-80): 113 % of control | T/C (dose: 225.0 mg/kg/injection, schedule: Q01DX001 (ip), vehicle: saline with Tween-80): 109 % of control

O=c1cn[nH]c(=O)[nH]1
T/C (dose: 62.5 mg/kg/injection, schedule: Q01DX010 (ip), vehicle: saline): 100 % of control | T/C (dose: 125.0 mg/kg/injection, schedule: Q01DX010 (ip), vehicle: saline): 100 % of control | T/C (dose: 250.0 mg/kg/injection, schedule: Q01DX010 (ip), vehicle: saline): 100 % of control | T/C (dose: 500.0 mg/kg/injection, schedule: Q01DX010 (ip), vehicle: saline): 95 % of control

Cc1cc2nc3c(=O)[nH]c(=O)nc-3n(CCOC(=O)CCC(=O)O)c2cc1C
T/C (dose: 50.0 mg/kg/injection, schedule: Q01DX009 (ip), vehicle: saline sonified): 100 % of control | T/C (dose: 100.0 mg/kg/injection, schedule: Q01DX009 (ip), vehicle: saline sonified): 100 % of control | T/C (dose: 200.0 mg/kg/injection, schedule: Q01DX009 (ip), vehicle: saline sonified): 118 % of control

Cc1cc(NC(=O)Nc2cccc(C3=NCCN3)c2)ccc1NC(=O)Nc1cccc(C2=NCCN2)c1
T/C (dose: 100.0 mg/kg/injection, schedule: Q01DX009 (ip), vehicle: saline with Tween-80): 118 % of control | T/C (dose: 400.0 mg/kg/injection, schedule: Q01DX009 (ip), vehicle: saline with Tween-80): 190 % of control

COc1ccc(NC(=O)Oc2ccc(-c3ccccc3)cc2Br)cc1
T/C [6]: 91 % of control | T/C [7]: 95 % of control | T/C [8]: 91 % of control

COc1ccc(OC)c(C(=O)CCCC(=O)O)c1
T/C [9]: 100 % of control | T/C (dose: 100.0 mg/kg/injection, schedule: Q01DX009 (ip), vehicle: Klucel (hydroxypropylcellulose) (HPC)): 90 % of control | T/C [6]: 100 % of control | T/C [10]: 104 % of control | T/C (dose: 200.0 mg/kg/injection, schedule: Q01DX009 (ip), vehicle: Klucel (hydroxypropylcellulose) (HPC)): 90 % of control | T/C [7]: 91 % of control | T/C [11]: 95 % of control | T/C (dose: 400.0 mg/kg/injection, schedule: Q01DX009 (ip), vehicle: Klucel (hydroxypropylcellulose) (HPC)): 95 % of control | T/C [8]: 87 % of control

CCCC(O)C(NC(=O)CCl)C(=O)O (centres undefined)
T/C (dose: 125.0 mg/kg/injection, schedule: Q01DX005 (ip), vehicle: other): 104 % of control | T/C (dose: 250.0 mg/kg/injection, schedule: Q01DX005 (ip), vehicle: other): 104 % of control

C/C1=C/CCCCCC1
T/C [12]: 104 % of control | T/C [5]: 95 % of control | T/C [13]: 90 % of control | T/C [14]: 100 % of control | T/C [15]: 113 % of control | T/C [16]: 95 % of control

CC(=O)Nc1ccn(CC(=O)c2cccs2)c(=O)n1
T/C [12]: 90 % of control | T/C [5]: 86 % of control | T/C [13]: 95 % of control | T/C [14]: 86 % of control | T/C [15]: 90 % of control | T/C [16]: 100 % of control

Cc1[nH]ccc2c(C)c3nc4ccccc4c3cc12
T/C (dose: 0.39 mg/kg/injection, schedule: Q01DX009 (ip), vehicle: saline with Tween-80): 116 % of control | T/C (dose: 0.59 mg/kg/injection, schedule: Q01DX009 (ip), vehicle: saline with Tween-80): 100 % of control | T/C (dose: 0.9 mg/kg/injection, schedule: Q01DX009 (ip), vehicle: saline with Tween-80): 150 % of control | T/C (dose: 1.35 mg/kg/injection, schedule: Q01DX009 (ip), vehicle: saline with Tween-80): 160 % of control | T/C (dose: 4.12 mg/kg/injection, schedule: Q01DX009 (ip), vehicle: saline with Tween-80): 168 % of control | T/C (dose: 8.25 mg/kg/injection, schedule: Q01DX009 (ip), vehicle: saline with Tween-80): 177 % of control | T/C (dose: 16.5 mg/kg/injection, schedule: Q01DX009 (ip), vehicle: saline with Tween-80): 163 % of control | T/C [3]: 165 % of control and 168 % of control | T/C [17]: 225 % of control and 154 % of control

O=C(O)CCCCCNC(=O)c1ccccc1
T/C (dose: 50.0 mg/kg/injection, schedule: Q04DX003 (ip), vehicle: Klucel (hydroxypropylcellulose) (HPC)): 118 % of control | T/C [9]: 100 % of control | T/C [6]: 100 % of control | T/C [10]: 104 % of control | T/C [7]: 100 % of control | T/C [11]: 100 % of control

COC(=O)c1nc(-c2ccc3c(n2)C(=O)C(N)=C(OC)C3=O)c(N)c(-c2ccc(OC)c(OC)c2O)c1C
T/C (dose: 4.0 mg/kg/injection, schedule: Q01DX009 (ip), vehicle: saline with Tween-80): 250 % of control | T/C (dose: 6.0 mg/kg/injection, schedule: Q01DX009 (ip), vehicle: saline with Tween-80): 183 % of control | T/C (dose: 9.0 mg/kg/injection, schedule: Q01DX009 (ip), vehicle: saline with Tween-80): 162 % of control

Nc1nc(N)c2ncc(/C=C/c3ccc(Cl)c(Cl)c3)nc2n1
T/C [18]: 91 % of control | T/C [19]: 90 % of control | T/C [20]: 108 % of control

Nc1ccc(/C=C2\C=Cc3ccccc32)cc1
T/C (dose: 17.75 mg/kg/injection, schedule: Q04DX003 (ip), vehicle: saline sonified): 100 % of control | T/C (dose: 18.75 mg/kg/injection, schedule: Q01DX009 (ip), vehicle: saline with Tween-80): 90 % of control | T/C [17]: 100 % of control | T/C (dose: 37.5 mg/kg/injection, schedule: Q04DX003 (ip), vehicle: saline sonified): 100 % of control | T/C (dose: 75.0 mg/kg/injection, schedule: Q04DX003 (ip), vehicle: saline sonified): 95 % of control

CCCC(C)(O)C#CC(C)(O)CCC (centres undefined)
T/C [2]: 101 % of control | T/C [3]: 92 % of control | T/C [4]: 93 % of control | T/C [18]: 100 % of control | T/C [19]: 104 % of control | T/C [20]: 90 % of control

— PubChem BioAssay AID328 (DTP/NCI, 2004)
